Values of other authors, collected in US10300042B2, “Apremilast for the treatment of a liver disease or a liver function abnormality” (Celgene Corporation, priority 2014, dated 2019).

System: alanine aminotransferase and/or aspartate aminotransferase
Details: animal models and human studies; cited from earlier work

CC(=O)CCCCn1c(=O)c2c(ncn2C)n(C)c1=O [Pentoxifylline]
Liver Function Tests abnormalities (ALT, AST levels): decreasing levels of alanine aminotransferase and/or aspartate aminotransferase
